System: MT-1 cells
Experiment: Bone lesions to healthy bone ratio in rat inoculated with MT-1 cells (scintigraphy, Bioscope)
Assay type: in vivo
Conditions: 15 MBq i.v. seven days after MT-1 inoculation, 24 h
Experimental: Tumour lesion to healthy bone ratio. A rat weighing 114 g was given a single bolus tail vein injection of 15 MBq (500 μl) of 46a seven days after inoculation with 1×10^6 MT-1 cells. The animal was sacrificed 24 h postinjection. The whole animal was then placed under a gamma camera and images were obtained. The spine was then excised and cut into slices of 10 μm. The slices were molded in Epon and images were obtained with a beta camera.
A prototype real time autoradiography system (Bioscope 3225, IDEAS, Høvik, Norway) consisting of a double sided multiple strip silicon detector was used to obtain images of bone slices.
In order to obtain ratios of bone cancer lesions to healthy bone, the hydroxybisphosphonate 46a was injected into a rat inoculated with MT-1 cells (a human breast cancer cell line, see section 4.2.3.1.) seven days earlier. The animal was sacrified 24 h postinjection and whole body images were obtained by means of scintigraphy. […] The radioactivity distributions in slices of the spine were then measured with a device (Bioscope) for real time autoradiography. The resulting images were automatically aligned by means of an image correlation method (Personal communication Arne Skretting, The Norwegian Radium Hospital, Oslo). Finally, the aligned images were added in layers to reconstruct the whole spine. […] Abnormal uptake was detected in one slice only. […]

O=P(O)(O)C(O)(Cc1cccc([131I])c1)P(=O)(O)O [46a, 1-hydroxy(m-[^131I and ^125I]-iodophenyl)-ethylidene-1,1-bisphosphonic acid]
Bone cancer lesions to healthy bone ratio: inconclusive

Reference: patent publication US6548042B2, “Bis-phosphonate compounds” (priority 2000, dated 2003)
